According to patent US12187723B2 (BRISTOL-MYERS SQUIBB COMPANY, priority 2019, dated 2025):

biological target: T1, human TLR7 (Homo sapiens, UniProt Q9NYK1); assay: TLR7 inhibition reporter assay (HEK-Blue SEAP); assay type: cell-based; conditions: HEK-Blue cells overexpressing human TLR7, gardiquimod 7.5 μM, 22 hour incubation
T1 construct: host or cells: HEK-Blue cells
T1 sequence (Q9NYK1 27-1049): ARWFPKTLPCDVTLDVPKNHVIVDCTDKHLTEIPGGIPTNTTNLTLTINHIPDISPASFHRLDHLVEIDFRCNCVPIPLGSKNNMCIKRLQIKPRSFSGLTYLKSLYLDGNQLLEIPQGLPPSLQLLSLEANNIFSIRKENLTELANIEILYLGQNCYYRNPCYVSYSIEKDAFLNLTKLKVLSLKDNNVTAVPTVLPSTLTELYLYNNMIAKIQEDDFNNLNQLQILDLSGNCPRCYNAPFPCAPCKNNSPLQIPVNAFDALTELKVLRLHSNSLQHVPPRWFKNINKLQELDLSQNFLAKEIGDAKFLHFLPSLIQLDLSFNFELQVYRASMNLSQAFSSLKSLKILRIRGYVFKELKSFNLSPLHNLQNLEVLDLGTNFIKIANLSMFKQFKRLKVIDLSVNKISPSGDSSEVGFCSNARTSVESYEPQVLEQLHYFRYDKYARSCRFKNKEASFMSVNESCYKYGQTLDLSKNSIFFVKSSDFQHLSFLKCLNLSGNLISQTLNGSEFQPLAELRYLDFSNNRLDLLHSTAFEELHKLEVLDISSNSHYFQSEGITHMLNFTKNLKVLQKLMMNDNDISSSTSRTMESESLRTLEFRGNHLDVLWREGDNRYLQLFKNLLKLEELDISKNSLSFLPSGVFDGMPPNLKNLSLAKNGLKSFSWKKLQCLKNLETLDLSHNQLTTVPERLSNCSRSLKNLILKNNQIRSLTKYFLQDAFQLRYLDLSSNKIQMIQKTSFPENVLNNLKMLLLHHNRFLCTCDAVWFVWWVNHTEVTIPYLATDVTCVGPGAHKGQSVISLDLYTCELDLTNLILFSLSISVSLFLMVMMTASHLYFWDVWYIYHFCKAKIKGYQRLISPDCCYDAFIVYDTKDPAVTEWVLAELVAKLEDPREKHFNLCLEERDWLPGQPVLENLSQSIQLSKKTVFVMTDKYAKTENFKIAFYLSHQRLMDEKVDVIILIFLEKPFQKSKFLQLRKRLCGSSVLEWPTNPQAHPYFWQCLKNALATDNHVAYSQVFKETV
Outline: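 Cells (15000/well for TLR7, 20,000 for TLR8) were treated with compounds over 0.05 nM-50 μM final. After 22 h at 37° C, 5% CO2, SEAP was measured with HEK-Blue Detection reagent; percent inhibition was taken as reduction of agonist-plus-DMSO signal relative to a known inhibitor.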

Structure (SMILES)	IC50
Cc1cc2c(cc1-c1cc(C)c3ncnn3c1)[nH]c(=O)n2[C@H]1CCCN(CC(=O)N(C)C)C1 [Example 93, (S)—N,N-dimethyl-2-(3-(6-methyl-5-(8-methyl-[1,2,4]triazolo[1,5-a]pyridin-6-yl)-2-oxo-2,3-dihydro-1H-benzo[d]imidazol-1-yl)piperidin-1-yl)acetamide]	0.565 µM
COc1cc(-c2ccc3c(c2)[nH]c(=O)n3C2CCN(C3COC3)CC2)cn2ncnc12 [Example 80, 5-(8-methoxy-[1,2,4]triazolo[1,5-a]pyridin-6-yl)-1-(1-(oxetan-3-yl)piperidin-4-yl)-1,3-dihydro-2H-benzo[d]imidazol-2-one]	> 3.13 µM
Cc1cc2c(cc1-c1cc(C)c3ncnn3c1)[nH]c(=O)n2[C@@H]1CCCN(CCC(C)(C)C)C1 [Example 44, (R)-1-(1-(3,3-dimethylbutyl)piperidin-3-yl)-6-methyl-5-(8-methyl-[1,2,4]triazolo[1,5-a]pyridin-6-yl)-1,3-dihydro-2H-benzo[d]imidazol-2-one]	0.104 µM
COc1ncc(CN2CCC[C@H](n3c(=O)[nH]c4cc(-c5cc(C)c6ncnn6c5)c(C)cc43)C2)cn1 [Example 36, (S)-1-(1-((2-methoxypyrimidin-5-yl)methyl)piperidin-3-yl)-6-methyl-5-(8-methyl-[1,2,4]triazolo[1,5-a]pyridin-6-yl)-1,3-dihydro-2H-benzo[d]imidazol-2-one]	0.171 µM
Cc1cc2c(cc1-c1cc(C)c3ncnn3c1)[nH]c(=O)n2C1CCN(CC(=O)N(C)C)CC1 [Example 91, N,N-dimethyl-2-(4-(6-methyl-5-(8-methyl-[1,2,4]triazolo[1,5-a]pyridin-6-yl)-2-oxo-2,3-dihydro-1H-benzo[d]imidazol-1-yl)piperidin-1-yl)acetamide]	> 3.13 µM

The remaining lines, values ahead:

IC50	Structure (SMILES)
0.033 µM	COc1cc(-c2cc3[nH]c(=O)n([C@@H]4CCCN(C(C)C)C4)c3cc2C)cn2ncnc12 [Example 53, (R)-1-(1-isopropylpiperidin-3-yl)-5-(8-methoxy-[1,2,4]triazolo[1,5-a]pyridin-6-yl)-6-methyl-1,3-dihydro-2H-benzo[d]imidazol-2-one]
0.0324 µM	CCC(CC)CN1CCC[C@@H](n2c(=O)[nH]c3cc(-c4cc(OC)c5ncnn5c4)c(C)cc32)C1 [Example 73, (R)-1-(1-(2-ethylbutyl)piperidin-3-yl)-5-(8-methoxy-[1,2,4]triazolo[1,5-a]pyridin-6-yl)-6-methyl-1,3-dihydro-2H-benzo[d]imidazol-2-one]
0.0148 µM	COc1cc(-c2cc3[nH]c(=O)n([C@H]4CC[C@@H](N(C)C)CC4)c3cc2C)cn2ncnc12 [Example 48, 1-((1s,4s)-4-(dimethylamino)cyclohexyl)-5-(8-methoxy-[1,2,4]triazolo[1,5-a]pyridin-6-yl)-6-methyl-1,3-dihydro-2H-benzo[d]imidazol-2-one]
0.0276 µM	COc1cc(-c2cc3[nH]c(=O)n([C@H]4CC[C@@H](NCC5CC5)CC4)c3cc2C)cn2ncnc12 [Example 60, 1-((1s,4s)-4-((cyclopropylmethyl)amino)cyclohexyl)-5-(8-methoxy-[1,2,4]triazolo[1,5-a]pyridin-6-yl)-6-methyl-1,3-dihydro-2H-benzo[d]imidazol-2-one]
0.0225 µM	COc1cc(-c2cc3[nH]c(=O)n([C@@H]4CCCN(CC(C)(C)C)C4)c3cc2C)cn2ncnc12 [Example 71, (R)-5-(8-methoxy-[1,2,4]triazolo[1,5-a]pyridin-6-yl)-6-methyl-1-(1-neopentylpiperidin-3-yl)-1,3-dihydro-2H-benzo[d]imidazol-2-one]
0.0885 µM	Cc1cc2c(cc1-c1cc(C)c3ncnn3c1)[nH]c(=O)n2[C@@H]1CCCN(CC2CCOC2)C1 (stereo partly drawn) [Example 43, 6-methyl-5-(8-methyl-[1,2,4]triazolo[1,5-a]pyridin-6-yl)-1-((3R)-1-((tetrahydrofuran-3-yl)methyl)piperidin-3-yl)-1,3-dihydro-2H-benzo[d]imidazol-2-one]
